Source: patent US20240317806A1, “TOPICAL PEPTIDE FORMULATION FOR THE TREATMENT OF SEXUAL DYSFUNCTION” (priority 2023, published 2024)

Legend:
[1] = tested on: erectile function of healthy rats; test: Erectile function (ICP/MAP ratio) after ganglionic electrical stimulation; format: in vivo, Sprague Dawley rats; conditions: peptide topical 4 mg/Kg 15 min before; sildenafil SC 25 mg/Kg 30 min before; EFS 8 Hz; 0-45 min
From the text: For this study, PnPP-19 was produced with TFA or Acetate as a counter-ion. Usually, peptides with TFA as a counter-ion are used in the preclinical stage of development; nevertheless, for safety purposes, the counter-ion is changed to acetate for clinical stage of development. […] Also, to compare if the counter-ion exchange would impact the biological effect of PnPP-19, two peptide batches was produced: one with the counter-ion TFA and another with the counter-ion Acetate. Sildenafil was used as a positive control (subcutaneously administration).
(§1) Erectile function was evaluated by means of the intracavernosal pressure/mean arterial pressure (ICP/MAP) ratio at 4 different times (0, 15, 30 and 45 minutes) after application of ganglionic electrical functional stimulus (EFS) of 8 Hz.
(§2) The formulated peptide (both with TFA counter-ion and Acetate) was applied topically to the penis of the rats 15 minutes before ICP/MAP measurements, at a dose of 1000 μg diluted in 200 μL of the formulation (dose of 4 mg/Kg), reaching a concentration of 5 mg/mL or 0.5% w/v of the peptide in the formulation. Sildenafil was applied SC, at a dose of 25 mg/Kg (1 mL/Kg) 30 minutes before ICP/MAP measurements.

[2] = Mean arterial pressure and dermal irritation in the erectile function study; format: in vivo, Sprague Dawley rats; conditions: for MAP: mean ± standard deviation
Experimental: as §1, §2

[3] = Second permeation test in Franz cells; format: in vitro ADME; conditions: Strat-M membrane; applied in the FAPP20 buffer (20 mM sodium acetate buffer solution)
Experimental: In the first permeation assay, the physical barrier was the whole pig skin, which mimics the human stratum corneum. In the second permeation test, the physical barrier was the Strat-M membrane, which mimics the human stratum corneum.
(§3) The assays were conducted in Franz vertical diffusion cells with 1.767 cm^2 of area for diffusion of the peptide, containing a donor compartment with a capacity of 1 mL and a recipient compartment with a capacity of 7 mL. To the recipient compartment, 7 mL of the biorelevant solution were added, in which the media selected by preliminary studies was 20 mM sodium acetate buffer pH 5.0+0.5% Tween® 20. […] The cells were placed in a thermostatic bath, with a temperature of 37° C.±0.5° C., with the goal to mimic the surface temperature. The bioreceptor medium was subjected to 350 rpm agitation. In times 0.5-, 1-, 2-, 4-, 6- and 24 h, collections of 1 mL were made from the recipient compartment, in order to measure the peptide content.
In the first permeation assay, PnPP-19 was formulated with 6 μM of alpha cyclodextrin or with transcutol 15%.
Based on the release results described above, the 20 mM sodium acetate buffer pH 5.0+0.5% Tween® 20 was confirmed as the best receiving medium to be used in the permeation assay with Strat M membrane.

[4] = Release test in Franz vertical diffusion cells; format: in vitro ADME; conditions: peptide applied in saline or in the buffer of the formulations; after 6 hours (peak) and until 24 hours
Experimental: For the release test, a cellulose acetate membrane was used to generate the physical barrier between a donor compartment, where the formulations are added, and the recipient compartment, where the peptide is measured.
as §3

[5] = Biodistribution and pharmacokinetics after topical administration of radiolabeled PnPP-19 in FAPP20; format: in vivo, rats
Experimental: In order to evaluate the in vivo permeation of the peptide (and/or its fragments) in the formulation FAPP20, a biodistribution study was carried out in healthy rats. The peptide was radiolabeled with iodine [^131I] NaI using chloramine T method.
The study was conducted considering the dose of 5 mg/ml; and the maximum area of genital application. The final application volume was 100 μL that results in a dose of 2 mg/kg. The evaluation of biodistribution was carried out after the administration of a single dose of the peptide, applied topically to the skin of the penis after trichotomy of the rat's genital area.
Regarding biodistribution data, radiolabeled peptide concentrations were higher in skin, foreskin and SMC tissue at all times studied. In the first analyzed time, of 15 minutes, it was already possible to detect the peptide in the target tissues: the SMC layer, and the first layer of the skin, where the penile nerves are found (herein called of foreskin), showing that the peptide is rapidly absorbed into the skin. Within 30 minutes, its detection falls at the initial application site (skin), and increases in the foreskin, showing that it continues to be absorbed, and remains stable in the SMC layer. Within 60 minutes it is practically undetectable in tissues (FIG. 4).
For the pharmacokinetic (PK) study, the blood of the animals was collected at 0 h (predose), 15, 30 and 60 minutes, 3, 8 and 24 hours. All samples collected were quantified in a Wizard 3 gamma counter (PerkinElmer) for later calculation of the percentage of dose applied per gram of organ. […] While 42% of the applied dose is in the first layer of the skin, the peptide is detected in up to 18% in the SMC layer. Both peptide and its fragments were not found systemically (<1%) in the organs of choice (kidneys, testicles and epididymis) or in the blood, at any of the evaluated time-points, showing that the formulation remains in the application site, with no systemic absorption.

[6] = Phase 1 clinical study: pharmacokinetics; format: in vivo, human; conditions: 12 subjects
Experimental: Related to the pharmacokinetic analysis, the following outcomes were considered: detection of BZ371A, and its fragments, in the blood at the following collected times: pre-dose, 15, 30, 60, 180 and 360 minutes; if detected, determine the pharmacokinetic parameters: maximum concentration, half-life, area under the curve, clearance, volume of distribution.

[7] = Physicochemical properties of PnPP-19 peptide (pI, pKa)
From the text: Aspects of the disclosure relate to pharmaceutical compositions comprising a PnPP-19 peptide (e.g., a peptide comprising or consisting of the amino acid sequence set forth in SEQ ID NO: 1). PnPP-19 is a synthetic, non-toxic peptide composed of 19 amino acid residues originating from the PnTx2-6 toxin, which was isolated from the venom of the Brazilian armadeira spider (Phoneutria nigriventer). In some embodiments, the isolated peptide (e.g., PnPP-19) is presented as a freeze-dried white powder (e.g., a solid physical form). In some embodiments, PnPP-19 is an amphipathic peptide with about 26% cationic amino acid residues. In some embodiments, PnPP-19 is positively charged at pH 7.

Molecule	erectile function (ICP/MAP ratio) compared to negative control (vehicle) [1]	MAP ([2]; 0 min)	MAP ([2]; 15 min)	MAP ([2]; 30 min)	MAP ([2]; 45 min)	effect on MAP / systemic hypotension compared to vehicle ([2]; rats)	detection of PnPP-19 in the receptor compartment (control) [3]	quantification of PnPP-19 in the receptor media (controls) [4]	applied dose/gram found in CC tissue (SMC layer) ([5]; 15 minutes after topical application to rat penis, normalized)	applied dose/gram found in the skin ([5]; 15 minutes after topical application to rat penis, normalized to total in all tissues)	peptide and fragments found systemically (kidneys, testicles, epididymis, blood) ([5]; any of the evaluated time-points up to 24 hours)	plasma concentrations of BZ371A fragments ([6]; no detectable concentrations, limit of detection=40 ng/ml)	plasma concentrations of BZ371A ([6]; no quantifiable concentrations, LIQ=50 ng/ml, pre-dose to 360 minutes)	pKa [7]
CCCc1nn(C)c2c(=O)[nH]c(-c3cc(S(=O)(=O)N4CCN(C)CC4)ccc3OCC)nc12 [Sildenafil, sildenafil]	not superior to the negative control group	87 ± 10 (**) mmHg	93 ± 8 (*) mmHg	93 ± 8 (***) mmHg	94 ± 7 (***) mmHg	significant decrease in MAP	–	–	–	–	–	–	–	–
Ac-GERRQYFWIAWYKLANSKK-NH2 [PnPP-19]	–	–	–	–	–	–	detected in the receptor compartment since initial time (0.5 h)	can be quantified in the receptor media	up to 18%	42%	< 1%	< 40 ng/mL	< 50 ng/mL	12.4
